Consider eleven compounds from ChEMBL document CHEMBL1201862, “PubChem BioAssay data set” (2004).

Each structure is given as a SMILES string.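 All cell lines were grown in 96-well plates and treated with compound for 48 hours. GI50 marks 50% less growth.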 The source made the active and inactive calls. No stated cut-off is given here; in the data, active = GI50 up to about 1.1 µM and inactive = higher.

One may read the GI50 as the concentration at which growth is held to half of that of the control.

Among the test systems are 786-0; ACHN; BT-549; CCRF-CEM; DU-145; HCT-15; IGROV-1; KM12; LOX IMVI; MOLT-4; NCI-H23; NCI-H522; PC-3; SF-295; SK-MEL-2; SK-MEL-5; SN12C; TK-10; HOP-62; T47D.
What all share (assay): DTP human tumour cell line panel, 48 h

With `CCOC(=O)/C(=C/Nc1c(C)n(C)n(-c2ccccc2)c1=O)C(C)=O`, the GI50 in the assay on 786-0 is > 100 µM (inactive); in the assay on ACHN, > 100 µM (inactive); in the assay with BT-549, > 100 µM (inactive); with CCRF-CEM, > 100 µM (inactive); in the assay with DU-145, > 100 µM (inactive); with HCT-15, more than 100 µM. Besides, the GI50 in the assay with IGROV-1, with KM12, in the assay on LOX IMVI, with MOLT-4, in the assay with NCI-H23 and with NCI-H522 was > 100 µM (inactive) in each case. The GI50 in the assay with PC-3, in the assay on SF-295, in the assay with SK-MEL-2, in the assay on SK-MEL-5, in the assay on SN12C and with TK-10 was > 100 µM (inactive) in each case.

On to `CN(C)CCCNc1cnc2cc3ccccc3cc2n1`, for which the GI50 with 786-0 was 31 µM (inactive); in the assay on ACHN, 31.2 µM (inactive); with BT-549 it was 15.3 µM (inactive); with CCRF-CEM, 42 µM (inactive); in the assay with DU-145, 41 µM (inactive); in the assay on HCT-15 it was 18.4 µM. The GI50 in the assay with HOP-62 was 26.2 µM (inactive); in the assay on IGROV-1, 13.9 µM (inactive); in the assay on KM12, 20 µM (inactive); in the assay with LOX IMVI, 14.3 µM (inactive); in the assay with MOLT-4 it was 28.4 µM (inactive); in the assay with NCI-H23, 25.1 µM (inactive). The GI50 with NCI-H522 was 19.8 µM (inactive); in the assay with PC-3 it was 15.4 µM (inactive); in the assay with SF-295 it was 20.7 µM (inactive); in the assay with SK-MEL-2, 19.5 µM (inactive); in the assay on SK-MEL-5, 19.6 µM (inactive); in the assay with SN12C, 33.1 µM (inactive). The GI50 in the assay with TK-10 was 27 µM (inactive).

With `CC1SCc2nc3ccccc3n21` (stereo unspecified), the GI50 with 786-0 is > 100 µM (inactive); with ACHN it was > 100 µM (inactive); with CCRF-CEM it was > 100 µM (inactive); in the assay on DU-145 it was > 100 µM (inactive); with HCT-15 it was more than 100 µM; with HOP-62 it was > 100 µM (inactive). Besides, the GI50 in the assay on IGROV-1, in the assay on KM12, in the assay on LOX IMVI, in the assay with MOLT-4, in the assay on NCI-H23 and with NCI-H522 was > 100 µM (inactive) in each case. For the same compound, the GI50 with PC-3, in the assay on SF-295, with SK-MEL-2, in the assay on SK-MEL-5, in the assay on SN12C and in the assay on T47D was > 100 µM (inactive) each time. Also, the GI50 with TK-10 is > 100 µM (inactive).

Turning to `CC[C@H](C)C1=C(OC(C)=O)[N@+]2([O-])Oc3ccc(-c4c(OC(C)=O)c(OC(C)=O)c(-c5ccc(OC(C)=O)cc5)c(OC(C)=O)c4OC(C)=O)cc3O[C@]2([C@@H](C)CC)C(=O)N1OC(C)=O`, the GI50 in the assay with 786-0 was 13.6 µM (inactive); in the assay on ACHN, 15.5 µM (inactive); in the assay with CCRF-CEM it was 0.294 µM (active); in the assay on DU-145, 16.6 µM (inactive); in the assay on HCT-15 it was 15.5 µM; in the assay on IGROV-1 it was 9.29 µM (inactive). In addition, the GI50 in the assay with KM12 is 14.4 µM (inactive); with LOX IMVI, 10.2 µM (inactive); in the assay with MOLT-4 it was 11.6 µM (inactive); with NCI-H23, 15.7 µM (inactive); in the assay on NCI-H522 it was 8.05 µM (inactive); with PC-3 it was 8.59 µM (inactive). The GI50 is 9.25 µM (inactive) with SF-295; 9.64 µM (inactive) in the assay on SK-MEL-2; 10.2 µM (inactive) with SK-MEL-5; 17.9 µM (inactive) with SN12C; 10.5 µM (inactive) with T47D; 15.6 µM (inactive) in the assay with TK-10.

`CC(=O)N(O)c1ccc(-c2nc3ccccc3s2)cc1`: the GI50 was 55.1 µM (inactive) in the assay with 786-0; 47.5 µM (inactive) in the assay with ACHN; > 100 µM (inactive) in the assay on CCRF-CEM; > 100 µM (inactive) in the assay on DU-145; more than 100 µM in the assay on HCT-15; 42.1 µM (inactive) in the assay with HOP-62. In addition, the GI50 in the assay with IGROV-1 is 32.9 µM (inactive); with KM12, 38.2 µM (inactive); with LOX IMVI, 63.4 µM (inactive); with MOLT-4, 48.6 µM (inactive); with NCI-H23 it was > 100 µM (inactive); in the assay on NCI-H522, 24.5 µM (inactive). Also, the GI50 is > 100 µM (inactive) with PC-3; 45.2 µM (inactive) in the assay with SF-295; 66.7 µM (inactive) in the assay with SK-MEL-2; 39.2 µM (inactive) in the assay with SK-MEL-5; > 100 µM (inactive) in the assay on SN12C; 32.9 µM (inactive) in the assay on T47D. The GI50 in the assay on TK-10 is 80.7 µM (inactive).

Regarding `C=C(Cl)C(C)(Cl)CCC(Br)C(C)(C)Cl` (stereo unspecified), the GI50 was 17.5 µM (inactive) with 786-0; 17.5 µM (inactive) in the assay on ACHN; 20.6 µM (inactive) in the assay on BT-549; 19.4 µM (inactive) in the assay on CCRF-CEM; 20.9 µM (inactive) in the assay with DU-145; 22 µM (inactive) with HOP-62. For the same compound, the GI50 with IGROV-1 is 28.8 µM (inactive); with KM12, 21.9 µM (inactive); with LOX IMVI, 13.3 µM (inactive); in the assay with MOLT-4 it was 28.4 µM (inactive); in the assay on NCI-H23, 19.1 µM (inactive); with NCI-H522, 11.2 µM (inactive). In addition, the GI50 in the assay on PC-3 was 25.6 µM (inactive); in the assay with SF-295, 29.1 µM (inactive); with SK-MEL-2, 19.3 µM (inactive); with SK-MEL-5, 16.9 µM (inactive); in the assay with SN12C it was 16.7 µM (inactive); in the assay on TK-10, > 100 µM (inactive).

With `COc1cc2c(cc1OC)C1CN3C(=O)CCC3C(O)C1c1cc(OC)c(OC)cc1-2` (stereo unspecified), the GI50 with 786-0 was > 100 µM (inactive); with ACHN, > 100 µM (inactive); in the assay on BT-549 it was > 100 µM (inactive); in the assay on CCRF-CEM, > 100 µM (inactive); in the assay on DU-145, > 100 µM (inactive); with HCT-15, more than 100 µM. In addition, the GI50 in the assay on HOP-62, with IGROV-1, with KM12, with LOX IMVI, in the assay on MOLT-4 and in the assay on NCI-H23 was > 100 µM (inactive) each time. The GI50 in the assay with NCI-H522, in the assay on SF-295, with SK-MEL-2, in the assay on SK-MEL-5, with SN12C and in the assay on T47D was > 100 µM (inactive) in each case. Further, the GI50 with TK-10 was > 100 µM (inactive).

On to `CC(C)CCc1c(Cl)nc(Cl)nc1Cl`, for which the GI50 in the assay on 786-0 was 20.3 µM (inactive); in the assay on ACHN, 21.2 µM (inactive); with BT-549, 4.1 µM (inactive); in the assay on CCRF-CEM it was 0.33 µM (active); in the assay on DU-145, 17.3 µM (inactive); in the assay on HCT-15 it was 3.47 µM. The GI50 was 16.4 µM (inactive) in the assay on HOP-62; 18 µM (inactive) in the assay on IGROV-1; > 10 µM (inactive) in the assay with KM12; 0.726 µM (active) in the assay with LOX IMVI; 0.783 µM (active) with MOLT-4; 8.97 µM (inactive) in the assay with NCI-H23. The GI50 in the assay on NCI-H522 was 2.71 µM (inactive); in the assay with PC-3, 13.6 µM (inactive); in the assay on SF-295, 18.1 µM (inactive); in the assay on SK-MEL-2, 16 µM (inactive); in the assay with SK-MEL-5, 4.07 µM (inactive); with SN12C, 10.7 µM (inactive). In addition, in the assay with TK-10, the GI50 was 21.1 µM (inactive).

As to `NC(c1ccccc1)(C(F)(F)F)P1(=O)OC(=O)c2ccccc2O1` (stereo unspecified), the GI50 in the assay on 786-0 was > 100 µM (inactive); in the assay on ACHN, > 100 µM (inactive); in the assay with BT-549 it was > 100 µM (inactive); in the assay on DU-145, > 100 µM (inactive); in the assay with HCT-15, more than 100 µM; with HOP-62 it was > 100 µM (inactive). The GI50 in the assay on IGROV-1 was > 100 µM (inactive); with KM12 it was > 100 µM (inactive); in the assay with MOLT-4, 48.8 µM (inactive); in the assay with NCI-H23, > 100 µM (inactive); with PC-3, > 100 µM (inactive); in the assay on SF-295 it was > 100 µM (inactive). Further, the GI50 is > 100 µM (inactive) in the assay on SK-MEL-2; 8.07 µM (inactive) in the assay on SK-MEL-5; > 100 µM (inactive) with SN12C; > 100 µM (inactive) in the assay on T47D; > 100 µM (inactive) in the assay with TK-10.

`COc1ccc(Oc2nc3c(N)cc(C(F)(F)F)cc3nc2-c2ccccc2)cc1`: the GI50 in the assay on 786-0 was 20.5 µM (inactive); in the assay with ACHN, 28.2 µM (inactive); with BT-549 it was 47.1 µM (inactive); with CCRF-CEM, 38.4 µM (inactive); in the assay with HCT-15 it was 31.6 µM; in the assay on HOP-62, 22.8 µM (inactive). Besides, the GI50 in the assay with IGROV-1 was 13.6 µM (inactive); with KM12, 12.8 µM (inactive); with LOX IMVI it was 17.3 µM (inactive); in the assay with MOLT-4, 42.2 µM (inactive); in the assay on NCI-H23 it was 50.9 µM (inactive); with PC-3, 19.8 µM (inactive). The GI50 with SF-295 was 18.5 µM (inactive); in the assay on SK-MEL-2, 12.2 µM (inactive); in the assay with SK-MEL-5, 29.9 µM (inactive); in the assay with T47D, 8.04 µM (inactive); in the assay with TK-10, 38.5 µM (inactive).

In the case of `c1ccc(CNCCN2CCNCC2)nc1`, the GI50 is > 100 µM (inactive) with 786-0; > 100 µM (inactive) with ACHN; > 100 µM (inactive) with BT-549; more than 100 µM with HCT-15; > 100 µM (inactive) with HOP-62; > 100 µM (inactive) in the assay with IGROV-1. Besides, the GI50 in the assay on KM12, with LOX IMVI, in the assay with MOLT-4, in the assay with NCI-H23, in the assay with NCI-H522 and with PC-3 was > 100 µM (inactive) throughout. For the same compound, the GI50 with SF-295, in the assay with SK-MEL-2, in the assay with SK-MEL-5, with SN12C, in the assay on T47D and with TK-10 was > 100 µM (inactive) in each case.
